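48-hour exposure; five concentrations; linearly interpolated endpoints. At the GI50, growth is halved. The concentration for full growth arrest is given as TGI.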
Columns and labels:
Assay in all cases: NCI tumour cell line growth inhibition, 48 h
786-0 renal = test system: 786-0 renal
MALME-3M melanoma = test system: MALME-3M melanoma
NCI-H226 lung = test system: NCI-H226 lung
OVCAR-4 ovarian = test system: OVCAR-4 ovarian
SF-295 CNS = test system: SF-295 CNS
SK-OV-3 ovarian = test system: SK-OV-3 ovarian
TK-10 renal = test system: TK-10 renal
UACC-257 melanoma = test system: UACC-257 melanoma
DU-145 prostate = test system: DU-145 prostate
T-47D breast = test system: T-47D breast

SMILES	TGI (786-0 renal)	TGI (MALME-3M melanoma)	TGI (NCI-H226 lung)	TGI (OVCAR-4 ovarian)	TGI (SF-295 CNS)	TGI (SK-OV-3 ovarian)	TGI (TK-10 renal)	TGI (UACC-257 melanoma)	GI50 (786-0 renal)	GI50 (DU-145 prostate)	TGI (DU-145 prostate)	GI50 (NCI-H226 lung)	GI50 (OVCAR-4 ovarian)	GI50 (SF-295 CNS)	GI50 (SK-OV-3 ovarian)	GI50 (T-47D breast)	TGI (T-47D breast)	GI50 (TK-10 renal)	GI50 (UACC-257 melanoma)	GI50 (MALME-3M melanoma)
Cc1nn(C)c(=S)n(C)c1=O	20.3 µM	37.2 µM	> 100 µM	> 100 µM	> 100 µM	42.8 µM	26.2 µM	11.2 µM	–	–	–	–	–	–	–	–	–	–	–	–
COC(=O)c1ccccc1N=Cc1ccc(N(CCC#N)S(=O)(=O)c2ccccc2)cc1	> 100 µM	> 100 µM	> 100 µM	> 100 µM	> 100 µM	> 100 µM	> 100 µM	> 100 µM	–	–	–	–	–	–	–	–	–	–	–	–
COC(=O)C(=O)C(C#N)c1ccc(Cl)c(Cl)c1 (configuration not stated)	> 100 µM	> 100 µM	> 100 µM	–	> 100 µM	> 100 µM	> 100 µM	> 100 µM	–	–	–	–	–	–	–	–	–	–	–	–
COc1ccc(/C=C/C(C(=O)O)C(=O)O)cc1	> 100 µM	> 100 µM	> 100 µM	> 100 µM	> 100 µM	> 100 µM	> 100 µM	> 100 µM	–	–	–	–	–	–	–	–	–	–	–	–
CN(Cc1ccccc1)C1(N(C)Cc2ccccc2)CC1	> 100 µM	> 100 µM	> 100 µM	> 100 µM	> 100 µM	> 100 µM	> 100 µM	> 100 µM	–	–	–	–	–	–	–	–	–	–	–	–
C=CCNC(=S)OCCCCCCCCCC	32.6 µM	33.8 µM	–	30.5 µM	34.5 µM	43.3 µM	24.1 µM	34.6 µM	–	–	–	–	–	–	–	–	–	–	–	–
C=C1C(=O)O[C@H]2[C@H]1CC(=O)/C(C)=C\CC[C@@]1(C)O[C@@H]21	4.51 µg/mL	–	9.45 µg/mL	8.12 µg/mL	12.4 µg/mL	17.4 µg/mL	5.38 µg/mL	6.99 µg/mL	1.06 µg/mL	3.44 µg/mL	7.11 µg/mL	4.71 µg/mL	3.75 µg/mL	5.55 µg/mL	7.86 µg/mL	2.57 µg/mL	9.53 µg/mL	1.93 µg/mL	3.39 µg/mL	–
COc1ccc(CCC2NCCc3cc(OC)c(OC)cc32)cc1 (configuration not stated)	> 100 µM	> 100 µM	–	> 100 µM	> 100 µM	–	> 100 µM	> 100 µM	–	–	–	–	–	–	–	–	–	–	–	–
COc1cccc(C2C(C#N)=C(N)Oc3cc(OC)ccc32)c1 (configuration not stated)	> 66.8 µM	–	> 100 µM	> 96.8 µM	33.9 µM	–	74.1 µM	> 83.9 µM	0.0556 µM	0.0347 µM	1.55 µM	0.896 µM	1.96 µM	0.0286 µM	0.0478 µM	0.0437 µM	63.3 µM	11.8 µM	1.1 µM	–
N#Cc1nc(Nc2ccc([N+](=O)[O-])cc2)sc1N	> 100 µM	> 91.4 µM	> 86.3 µM	> 100 µM	> 100 µM	97.5 µM	> 77 µM	63.7 µM	–	–	–	–	–	–	–	–	–	–	–	–
COC1(OC)c2ccccc2C2(O)c3ccccc3C(=O)C12 (configuration not stated)	> 100 µM	> 100 µM	> 100 µM	–	> 100 µM	> 100 µM	> 100 µM	83.9 µM	–	–	–	–	–	–	–	–	–	–	–	–
O=C(/C=C/c1ccc(Cl)cc1)c1ccncc1	> 100 µM	> 100 µM	> 100 µM	> 100 µM	> 100 µM	> 100 µM	> 100 µM	> 100 µM	–	–	–	–	–	–	–	–	–	–	–	–
Clc1ccc(Nc2nc3ccccc3c3occc23)cc1	15.1 µM	–	–	19.8 µM	13.3 µM	16 µM	11 µM	19.2 µM	8.33 µM	7.01 µM	13.5 µM	–	8.7 µM	6.86 µM	8.15 µM	1.52 µM	11.3 µM	4.99 µM	10.4 µM	–
O=C(O/N=C1/CCCC/C1=C\c1ccccc1)c1ccc(Cl)cc1	> 100 µM	> 100 µM	> 100 µM	> 100 µM	> 100 µM	> 100 µM	> 100 µM	> 100 µM	–	–	–	–	–	–	–	–	–	–	–	–
CN(C)CCCC(=O)Nc1ccc(Cn2nnc3c2C(=O)c2nnn(Cc4ccc(NC(=O)CCCN(C)C)cc4)c2C3=O)cc1	44.2 µM	2.94 µM	42.2 µM	2.64 µM	31.5 µM	49 µM	> 100 µM	11.6 µM	18.2 µM	3.48 µM	10.6 µM	16.5 µM	1.34 µM	14.4 µM	20.9 µM	–	–	> 100 µM	3.25 µM	1.39 µM
CCN1CCCCC(=N\O)/C(=N/O)CCCC1	> 100 µM	> 100 µM	> 100 µM	> 100 µM	> 100 µM	> 100 µM	> 100 µM	> 100 µM	–	–	> 100 µM	–	–	–	–	–	–	–	–	–
Cn1cnc([N+](=O)[O-])c1Sc1nnc(C(F)(F)F)n1C	> 100 µM	44 µM	> 100 µM	62.6 µM	> 100 µM	> 100 µM	74.4 µM	32.9 µM	–	–	–	–	–	–	–	–	–	–	–	–

SMILES	TGI (786-0 renal)	TGI (MALME-3M melanoma)	TGI (NCI-H226 lung)	TGI (OVCAR-4 ovarian)	TGI (SF-295 CNS)	TGI (SK-OV-3 ovarian)	TGI (TK-10 renal)	TGI (UACC-257 melanoma)	GI50 (786-0 renal)	GI50 (DU-145 prostate)	TGI (DU-145 prostate)	GI50 (NCI-H226 lung)	GI50 (OVCAR-4 ovarian)	GI50 (SF-295 CNS)	GI50 (SK-OV-3 ovarian)	GI50 (T-47D breast)	TGI (T-47D breast)	GI50 (TK-10 renal)	GI50 (UACC-257 melanoma)	GI50 (MALME-3M melanoma)
C=CCC(C)(C(=O)NCCC)C(=O)c1ccccc1O (configuration not stated)	> 100 µM	> 100 µM	> 100 µM	> 100 µM	–	> 100 µM	> 100 µM	> 100 µM	–	–	–	–	–	–	–	–	–	–	–	–
C1C[OH+]CC[OH+]CC[OH+]CC[OH+]CC[OH+]CC[OH+]1.[Cl-].[Ta+5]	> 100 µM	> 100 µM	30.5 µM	> 100 µM	> 100 µM	> 100 µM	> 100 µM	> 100 µM	> 100 µM	–	–	13.3 µM	> 100 µM	> 100 µM	> 100 µM	–	–	> 100 µM	> 100 µM	> 100 µM
CC1=N/C(=C\c2cccc3ccccc23)C(=O)O1	> 100 µM	> 100 µM	–	–	> 100 µM	–	> 100 µM	> 100 µM	–	–	–	–	–	–	–	–	–	–	–	–
O=c1c2cccnc2ncn1CCCN1CCOCC1	> 100 µM	> 100 µM	> 100 µM	> 100 µM	> 100 µM	> 100 µM	> 100 µM	–	–	–	–	–	–	–	–	–	–	–	–	–
Cc1cccc(N2C(=O)C(=O)C(c3nc4ccccc4s3)C(=O)C2=O)c1C	> 100 µM	> 100 µM	> 100 µM	> 100 µM	> 100 µM	> 100 µM	> 100 µM	> 100 µM	–	–	–	–	–	–	–	–	–	–	–	–
COc1ccc(-c2[nH]ncc2-c2cc(OC)c(OC)c(OC)c2)cc1	13.9 µM	–	34.8 µM	29.6 µM	< 0.01 µM	20.5 µM	–	> 50.3 µM	< 0.01 µM	< 0.01 µM	1.64 µM	< 0.0148 µM	< 0.0397 µM	< 0.01 µM	< 0.01 µM	–	–	–	–	–
COc1ccc2sc3c(NCCCNCCO)nc4ccccc4c3c(=O)c2c1	2.82 µM	3.26 µM	3.75 µM	4.09 µM	3.15 µM	–	3.38 µM	3.99 µM	1.38 µM	1.6 µM	2.98 µM	2.09 µM	1.94 µM	1.73 µM	–	–	–	1.83 µM	1.93 µM	1.69 µM
O=C(Nc1ccccc1F)c1ccc(NC2=C(Cl)C(=O)N(Cc3ccccc3)C2=O)cc1	27 µM	–	25.2 µM	23.1 µM	22.6 µM	31.4 µM	–	29.8 µM	14 µM	2.11 µM	4.34 µM	11.2 µM	11.1 µM	10.7 µM	17.6 µM	3.06 µM	8.01 µM	–	12.5 µM	–
CN(C)CCNC(=O)c1cccc2c1nc(-c1ccccn1)c1ccccc12	43.7 µM	–	–	42.2 µM	41.1 µM	37.3 µM	–	30.4 µM	–	–	–	–	–	–	–	–	–	–	–	–
NC(=S)N/N=C(\C(=O)Nc1ccc(Cl)c(Cl)c1)C1=NN(c2ccccc2)C(c2cccc([N+](=O)[O-])c2)CC1=O (configuration not stated)	36.8 µM	> 100 µM	93.6 µM	63 µM	57.2 µM	> 100 µM	> 100 µM	83.1 µM	–	–	–	–	–	–	–	–	–	–	–	–
O=C1CCC2CCOc3ccc(O)c1c32 (configuration not stated)	> 100 µM	> 100 µM	> 100 µM	> 100 µM	> 100 µM	> 100 µM	> 100 µM	> 100 µM	–	–	–	–	–	–	–	–	–	–	–	–
CC1=C(c2cc(C(=O)Nc3cccc(C(F)(F)F)c3)nc(NC#N)n2)Sc2ccccc2N1	> 100 µM	> 100 µM	> 100 µM	> 100 µM	> 100 µM	> 100 µM	> 100 µM	> 100 µM	–	–	–	–	–	–	–	–	–	–	–	–
Cc1ccc([Se][Se]c2ccc(C)cc2)cc1	46.5 µM	> 100 µM	> 100 µM	36.9 µM	61.6 µM	> 100 µM	> 100 µM	68.8 µM	–	–	–	–	–	–	–	–	–	–	–	–
CCc1cccc(C(C)CC)c1NC(=O)CC1C(=O)Nc2ccccc2S1=O (configuration not stated)	> 100 µM	> 100 µM	> 100 µM	47.9 µM	> 100 µM	–	> 100 µM	> 100 µM	–	–	–	–	–	–	–	–	–	–	–	–
O=C1CC(c2c[nH]c3ccccc23)C(=O)N1c1ccccc1 (configuration not stated)	> 100 µM	> 100 µM	> 100 µM	> 100 µM	> 100 µM	> 100 µM	> 100 µM	> 100 µM	–	–	–	–	–	–	–	–	–	–	–	–
CC1=N/C(=C\c2ccc([N+](=O)[O-])cc2)C(=O)O1	> 100 µM	> 100 µM	–	> 100 µM	> 100 µM	–	> 100 µM	> 100 µM	–	–	–	–	–	–	–	–	–	–	–	–
CS(=O)(=O)CS(=O)CS(=O)CS(=O)CC(NC(=O)CCC(N)C(=O)O)C(=O)O (configuration not stated)	> 100 µM	–	–	> 100 µM	> 100 µM	–	> 100 µM	> 100 µM	–	–	> 100 µM	–	–	–	–	–	> 100 µM	–	–	–

Source: PubChem BioAssay (NCI)
